Each block holds one molecule with its values, some of them ahead of it.
Assays:
[1] = system: carboxypeptidase A; assay: Enzymatic hydrolysis of pteroyltyrosine followed spectrophotometrically (uv); assay type: biochemical; conditions: 0.025 M Tris-HCl, 2 mM zinc chloride, pH 7.3, two hours at ambient temperature
Experimental: Two milliliters of a solution of pteroyltrosine (0.75 mmoles/ml) in 0.025 M Tris-HCl containing 2 mM zinc chloride, pH 7.3 were diluted to 10 ml with distilled water. A portion of this solution (2 ml) was placed in a 1 cm cuvette and in another was placed 2 ml of distilled water. To each of the cuvettes was added 50 μl of a solution of 100 μl carboxypeptidase A suspension (Aldrich chemical, lot 060637) diluted with 0.9 ml of 10% lithium chloride.
The time course of the reaction was followed spectrophotometrically (uv) over a period of two hours at ambient temperature. An increase and shift in max from 280 to 277 nm and a marked decrease in absorption at 220 nm was observed. Two isosbestic points at 242 and 282 nm were visible.

[2] = molecular target: whole milk folate binder (Bos taurus, UniProt P02702); assay: Competitive protein binding (CPB) radioassay for folates using pteroyltyrosine [125I] as radiolabel; conditions: for coincidence of dose response curves generated using pteroyltyrosine [125I] as label: high pH versus lower pH
Sequence of whole milk folate binder (P02702 20-234): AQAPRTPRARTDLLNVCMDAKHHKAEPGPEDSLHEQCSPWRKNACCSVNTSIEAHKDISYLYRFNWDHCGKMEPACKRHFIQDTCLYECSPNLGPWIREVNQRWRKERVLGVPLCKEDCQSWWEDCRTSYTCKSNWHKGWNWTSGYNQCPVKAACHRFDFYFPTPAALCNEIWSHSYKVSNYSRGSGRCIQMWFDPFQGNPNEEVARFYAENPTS
Experimental: The use of the Centria® analytical system, Union Carbide Corporation, in this example, is meant to be illustrative and other methods, both automated and manual, obvious to those skilled in the clinical diagnostic art are also within the scope of this invention.
Briefly, the Centria® system is a tri-modular instrument in which reagents are pipetted on to a multiwell transfer disk and mixed centrifugally with standards or patients' samples. After a suitable incubation period, the components are separated by a centrifugal elution of the bound and free fractions and the bound fractions counted three at a time.
Folic acid and N^5 -methyltetrahydrofolic acid standards in the range 0-20 nanograms/milliliter were prepared in 0.05 M sodium borate, pH 9.3 containing 0.1% human serum albumin. The whole milk binder was prepared according to the method of Rothenberg et al., (3) and dissolved in sodium borate, pH 9.3 containing 0.1% human serum albumin.
(50 microliters, 20,000 cpm) plus 85 microliters of water with the limited number of binding sites contained in a 200 microliter solution of whole milk folate binder. The binding reactions may be shown as follows:
A gamma counter which counts three of the 36 positions at a time for one minute, so constructed that only the eluate bottom portion of the test tubes fits into the counter, was then used to count all samples. Sequential counting of the tubes thus required about 12 minutes. A small computer with printout capability then printed out the data after completion of the cycle.

[3] = Storage stability of the radioiodinated product, judged by assay performance; assay type: physicochemical; conditions: stored in a 50% aqueous propylene glycol solution, ten-week period
Description: Radioiodination of biological compounds frequently leads to marked chemical instability and subsequent degradation of the radiolabel. This problem is often accentuated in the radiolabel when the materials to be radioiodinated are known to be sensitive to oxygen, light or extremes in pH, as is the case with folic acid and some derivatives.
The reaction mixture was applied to a 1×20 cm Sephadex G25, fine, (Pharmacia Fine Chemicals, Uppsala, Sweden) column hydrated with distilled water and equilibrated with 0.1 M potassium phosphate, pH 7.5. The column was eluted with 0.1 M potassium phosphate buffer and 3 ml fractions collected. The product "peak" fractions 32-34 were collected, diluted 1:1 with propylene glycol and stored below 0° C.

final uv spectrum after treatment with carboxypeptidase A [1]: very similar to that of pteroic acid
SMILES: Nc1nc2ncc(CNc3ccc(C(=O)N[C@@H](Cc4ccc(O)cc4)C(=O)O)cc3)nc2c(=O)[nH]1 [Pteroyltyrosine, Pteroyl-L-Tyrosine]

SMILES: CN1c2c(O)nc(N)nc2NCC1CNc1ccc(C(=O)N[C@@H](CCC(=O)O)C(=O)O)cc1 (some centres unmarked) [N^5 -methyl THF, N-5-methyltetrahydrofolic acid]
coincidence of dose response curves generated using pteroyltyrosine [125I] as label [2]: more nearly coincident than at lower pH

SMILES: Nc1nc(O)c2nc(CNc3ccc(C(=O)N[C@@H](Cc4ccc(O)c([125I])c4)C(=O)O)cc3)cnc2n1 [pteroyltyrosine [^125 I]]
performance as radiolabel in CPB radioassay for folic acid ([2]; folic acid concentration range 0-20 ng/ml): effective radiolabel in a sensitive CPB radioassay for folic acid
deterioration in assay performance on storage [3]: no deterioration in assay performance over a ten-week period

SMILES: Nc1nc2ncc(CNc3ccc(C(=O)N[C@@H](CCC(=O)O)C(=O)O)cc3)nc2c(=O)[nH]1 [folic acid, pteroylglutamic acid]
coincidence of dose response curves generated using pteroyltyrosine [125I] as label [2]: more nearly coincident than at lower pH

Source: patent US4314988A, “Folic acid derivatives and process for preparation” (Baker Instruments Corp., priority 1979, dated 1982)
